molecular target: T1, Recombinant human GR (Homo sapiens, UniProt P04150); assay: GR competitor assay by fluorescence polarization (binding activity to glucocorticoid receptor); details: 20 μM test compound solution, 25 μL per well plus 12.5 μL each of 4×GS1 and 4×GR solution; Fluormone GS1 ligand; positive control 2 mM dexamethasone; read-out: GR Binding ratio (%)
T1 construct: purchased Invitrogen P2816
T1 sequence (P04150 1-777): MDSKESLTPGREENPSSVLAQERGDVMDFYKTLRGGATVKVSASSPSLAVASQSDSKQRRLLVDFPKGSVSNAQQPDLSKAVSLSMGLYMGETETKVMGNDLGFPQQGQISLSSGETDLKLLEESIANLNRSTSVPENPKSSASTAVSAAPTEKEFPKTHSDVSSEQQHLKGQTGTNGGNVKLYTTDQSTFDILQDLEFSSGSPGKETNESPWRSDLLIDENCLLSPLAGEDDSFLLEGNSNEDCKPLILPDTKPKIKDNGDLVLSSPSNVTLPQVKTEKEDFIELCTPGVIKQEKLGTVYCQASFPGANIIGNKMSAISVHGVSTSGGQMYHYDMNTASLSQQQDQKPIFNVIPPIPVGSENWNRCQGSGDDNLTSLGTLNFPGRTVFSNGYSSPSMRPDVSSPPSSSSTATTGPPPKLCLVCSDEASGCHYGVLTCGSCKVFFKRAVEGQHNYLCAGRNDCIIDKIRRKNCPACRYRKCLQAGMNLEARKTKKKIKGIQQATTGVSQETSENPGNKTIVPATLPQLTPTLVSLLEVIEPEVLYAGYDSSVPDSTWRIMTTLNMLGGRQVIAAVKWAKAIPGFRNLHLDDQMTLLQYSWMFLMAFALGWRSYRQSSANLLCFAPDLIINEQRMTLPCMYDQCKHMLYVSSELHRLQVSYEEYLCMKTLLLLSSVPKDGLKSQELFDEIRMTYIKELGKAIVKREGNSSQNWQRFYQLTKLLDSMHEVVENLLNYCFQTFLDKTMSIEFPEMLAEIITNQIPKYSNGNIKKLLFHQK
Description: 1. Evaluation Test for Binding Activity to Glucocorticoid Receptor (Hereinafter Referred to as “GR”)
In order to evaluate a binding activity to GR, a receptor competitor assay was carried out by a fluorescence polarization method. In the assay, a GR competitor assay kit (manufactured by Invitrogen, cat No. P2816) was used, and a procedure was carried out according to the protocol attached to the kit. Hereinafter, the specific method will be described.
GR screening buffer: A buffer containing 10 mM potassium phosphate (pH 7.4), 20 mM sodium molybdate (Na2MoO4), 0.1 mM ethylene diamine tetraacetic acid (EDTA), 5 mM dithiothreitol (DTT), 0.1 mM stabilizing peptide and 2% dimethylsulfoxide was prepared.
4×GS1 solution: Fluormone™ GS1, which is a fluorescent glucocorticoid ligand, was diluted with GR screening buffer, whereby a 4 nM solution was prepared.
4×GR solution: Recombinant human GR was diluted with GR screening buffer, whereby a 16 nM solution was prepared.
After a test compound was dissolved in dimethylsulfoxide, the resulting solution was diluted with GR screening buffer, whereby a 20 μM test compound solution was prepared.
1) The test compound solution was added in an amount of 25 μL into each well of a 96-well plate, and then, 4×GS1 solution and 4×GR solution were added in an amount of 12.5 μL into each well, respectively.
2) The plate was incubated in a dark place at room temperature for 2 to 4 hours.
3) By using a multimode plate reader, Analyst™ HT (manufactured by LJL Biosystems), fluorescence polarization of each well was measured. As the blank, a well containing GR screening buffer in place of the test compound and 4×GS1 solution was used.
4) The same procedure as that in the above 1) to 3) was carried out except that GR screening buffer was used in place of the test compound solution, and the obtained result was taken as the negative control.
5) The same procedure as that in the above 1) to 3) was carried out except that 2 mM dexamethasone was used in place of the test compound solution, and the obtained result was taken as the positive control.
A GR binding ratio (%) was calculated from the following equation.
GR binding ratio (%)=100×[1-(fluorescence polarization of test compound solution-fluorescence polarization of positive control solution)/(fluorescence polarization of negative control solution—fluorescence polarization of positive control solution)]

Row | inhibition at 10 µM | Structure (SMILES)
1 | 91% | COc1ccc(C(=O)OCc2c(-c3ccc(OC(=O)c4ccccc4C)cc3OC)ccc3c2NC(=O)C(C)(C)N3)cc1 [Compound 1-4, 7-[2-Methoxy-4-(2-methylbenzoyloxy)phenyl]-8-(4-methoxybenzoyloxymethyl)-3,3-dimethyl-3,4-dihydro-1H-quinoxalin-2-one]
2 | 99% | COc1ccc(F)cc1-c1ccc2c(c1COC(=O)c1ccc(C)cc1)NC(=O)C(C)(C)N2 [Compound 2-2]
3 | 99% | COc1cc(F)ccc1-c1ccc2c(c1COC(=O)c1ccc(C)s1)N(C)C(=O)C(C)(C)N2 [Compound 2-9]
4 | 100% | COc1cc(F)ccc1-c1ccc2c(c1COC(=O)c1ccc(Br)s1)N(C)C(=O)C(C)(C)N2 [Compound 2-16]
5 | 100% | COc1cc(F)ccc1-c1ccc2c(c1COc1cc([N+](=O)[O-])ccc1C)N(C)C(=O)C(C)(C)N2 [Compound 3-7]
6 | 100% | COc1ccc(Cl)cc1-c1ccc2c(c1COc1ccccc1CCO)N(C)C(=O)C(C)(C)N2 [Compound 3-10]
7 | 100% | COc1cc(F)ccc1-c1ccc2c(c1COc1cc(Cl)ccc1C)N(C)C(=O)C(C)(C)N2 [Compound 3-15]
8 | 100% | COc1ccc([N+](=O)[O-])cc1OCc1c(-c2ccc(F)cc2OC)ccc2c1N(C)C(=O)C(C)(C)N2 [Compound 3-16]
9 | 100% | C=CCc1ccccc1OCc1c(-c2ccc(F)cc2OC)ccc2c1N(C)C(=O)C(C)(C)N2 [Compound 3-17]
10 | 100% | COc1ccc(C)cc1NCc1c(-c2ccc(F)cc2OC)ccc2c1N(C)C(=O)C(C)(C)N2 [Compound 4-5]
11 | 100% | COc1ccc(Cl)cc1-c1ccc2c(c1CNc1cc(F)ccc1C)N(C)C(=O)C(C)(C)N2 [Compound 4-7]
12 | 100% | COc1ccc(Cl)cc1-c1ccc2c(c1CNc1ccccc1C(C)C)N(C)C(=O)C(C)(C)N2 [Compound 4-10]
13 | 100% | COc1ccccc1NCc1c(-c2ccc(F)cc2OC)ccc2c1N(C)C(=O)C(C)(C)N2 [Compound 4-11]
14 | 100% | COc1ccc(F)cc1-c1ccc2c(c1COC(=O)c1ccccc1)N(C)C(=O)C(C)(C)N2 [Compound 5-1, 8-Benzoyloxymethyl7-(5-fluoro-2-methoxyphenyl)-1,3,3-trimethyl-3,4-dihydro-1H-quinoxalin-2-one]
15 | 100% | COc1ccc(F)cc1-c1ccc2c(c1COc1ccccc1)N(C)C(=O)C(C)(C)N2 [Compound 5-9]
16 | 100% | COc1ccc(F)cc1-c1ccc2c(c1CNc1ccccc1)N(C)C(=O)C(C)(C)N2 [Compound 5-14]
17 | 100% | CCN1C(=O)C(C)(C)Nc2ccc(-c3cc(F)ccc3OC)c(COC(=O)c3ccc(C)cc3)c21 [Compound 5-18]
18 | 100% | C=CCN1C(=O)C(C)(C)Nc2ccc(-c3cc(F)ccc3OC)c(COC(=O)c3ccc(C)cc3)c21 [Compound 5-19]
19 | 100% | COc1ccc(C(=O)OCc2c(-c3ccc(OC(=O)c4ccccc4C)cc3OC)ccc3c2N(C)C(=O)C(C)(C)N3)cc1 [Compound 5-21]
20 | 99% | COc1ccc([N+](=O)[O-])cc1OCc1c(-c2ccc(OC(=O)c3ccccc3C)cc2OC)ccc2c1N(C)C(=O)C(C)(C)N2 [Compound 5-22]
21 | 100% | COc1cc(OC(=O)c2ccccc2C)ccc1-c1ccc2c(c1COC(=O)c1cccc(F)c1)N(C)C(=O)C(C)(C)N2 [Compound 5-24]

Row | inhibition at 10 µM | Structure (SMILES)
22 | 98% | Cc1ccc(F)cc1OCc1c(-c2ccccc2Cl)ccc2c1N(C)C(=O)C(C)(C)N2 [Compound 6-4]
23 | 98% | COc1ccccc1-c1ccc2c(c1COc1cc(F)ccc1C)N(C)C(=O)C(C)(C)N2 [Compound 6-8]
24 | 100% | CSc1ccccc1-c1ccc2c(c1COc1cc(F)ccc1C)N(C)C(=O)C(C)(C)N2 [Compound 6-10]
25 | 100% | COc1cc(F)ccc1-c1ccc2c(c1COc1cc(F)ccc1C)N(C)C(=O)C(C)(C)N2 [Compound 6-12]
26 | 100% | COc1ccc(Cl)cc1-c1ccc2c(c1COc1cc(F)ccc1C)N(C)C(=O)C(C)(C)N2 [Compound 6-15]
27 | 100% | COc1ccc(C(F)(F)F)cc1-c1ccc2c(c1COc1cc(F)ccc1C)N(C)C(=O)C(C)(C)N2 [Compound 6-19]
28 | 98% | COc1cccc(F)c1-c1ccc2c(c1COc1cc(F)ccc1C)N(C)C(=O)C(C)(C)N2 [Compound 6-23]
29 | 100% | COc1ccc([N+](=O)[O-])cc1-c1ccc2c(c1COc1cc(F)ccc1C)N(C)C(=O)C(C)(C)N2 [Compound 6-27, 8-(5-fluoro-2-methylphenoxymethyl)-7-(2-methoxy-5-nitrophenyl)-1,3,3-trimethyl-3,4-dihydro-1H-quinoxalin-2-one]
30 | 89% | COc1ccc(OC(=O)c2ccccc2)cc1-c1ccc2c(c1COc1cc(F)ccc1C)N(C)C(=O)C(C)(C)N2 [Compound 6-32]
31 | 100% | COc1ccc(C(F)(F)F)cc1-c1ccc2c3c1CN(c1ccccc1OC)CN3C(=O)C(C)(C)N2 [Compound 6-38]
32 | 100% | COc1cc(N)ccc1-c1ccc2c(c1COc1cc(F)ccc1C)N(C)C(=O)C(C)(C)N2 [Compound 8-2]
33 | 100% | COc1ccc(CO)cc1-c1ccc2c(c1COc1cc(F)ccc1C)N(C)C(=O)C(C)(C)N2 [Compound 9-1, 8-(5-Fluoro-2-methylphenoxymethyl)-7-(5-hydroxymethyl-2-methoxyphenyl)-1,3,3-trimethyl-3,4-dihydro-1H-quinoxalin-2-one]
34 | 100% | COc1cc(O)ccc1-c1ccc2c(c1COc1cc(F)ccc1C)N(C)C(=O)C(C)(C)N2 [Compound 11, 8-(5-fluoro-2-methylphenoxymethyl)-7-(4-hydroxy-2-methoxyphenyl)-1,3,3-trimethyl-3,4-dihydro-1H-quinoxalin-2-one]
35 | 91% | COc1cc(O)ccc1-c1ccc2c(c1COC(=O)c1ccc(C)s1)N(C)C(=O)C(C)(C)N2 [Compound 13-2, 7-(4-Hydroxy-2-methoxyphenyl)-8-(5-methylthiophen-2-ylcarbonyloxymethyl)-1,3,3-trimethyl-3,4-dihydro-1H-quinoxalin-2-one]
36 | 100% | COc1cc(OC(=O)c2ccccc2C)ccc1-c1ccc2c(c1COc1cc(F)ccc1C)N(C)C(=O)C(C)(C)N2 [Compound 14-2]
37 | 100% | COc1cc(OC(=O)c2ccccc2Cl)ccc1-c1ccc2c(c1COc1cc(F)ccc1C)N(C)C(=O)C(C)(C)N2 [Compound 14-4]
38 | 100% | COc1cc(OC(=O)c2ccoc2)ccc1-c1ccc2c(c1COc1cc(F)ccc1C)N(C)C(=O)C(C)(C)N2 [Compound 14-11]
39 | 100% | COc1cc(NC(=O)c2ccncc2)ccc1-c1ccc2c(c1COc1cc(F)ccc1C)N(C)C(=O)C(C)(C)N2 [Compound 14-21, 8-(5-fluoro-2-methylphenoxymethyl)-7-[2-methoxy-4-(pyridin-4-ylcarbonylamino)phenyl]-1,3,3-trimethyl-3,4-dihydro-1H-quinoxalin-2-one]
40 | 100% | COc1cc(NC(=O)c2ccccc2Cl)ccc1-c1ccc2c(c1COc1cc(F)ccc1C)N(C)C(=O)C(C)(C)N2 [Compound 14-22]
41 | 100% | COc1ccc(C(=O)Oc2ccc(-c3ccc4c(c3COc3cc(F)ccc3C)N(C)C(=O)C(C)(C)N4)c(OC)c2)cc1 [Compound 14-30]
42 | 100% | C=CC(=O)Oc1ccc(-c2ccc3c(c2COc2cc(F)ccc2C)N(C)C(=O)C(C)(C)N3)c(OC)c1 [Compound 14-33]
